According to patent publication US12533339B2, “Small molecule antiviral drug treatment for human papillomavirus infections” (THE TRUSTEES OF INDIANA UNIVERSITY, priority 2020, dated 2026):

What was measured:
E6 WT/E6AP [1] = target: T1, E6 WT/E6AP (Human papillomavirus type 16, UniProt P03126); test: biochemical; format: binding; settings: WT 16E6; for inhibition at 10 µM: 10 μM compound; for inhibition at 100 µM: 100 μM compound
E6C51S/E6AP = E6C51S/E6AP (Human papillomavirus type 16, UniProt P03126, C58S); test: E6/E6AP binding assay (amylose-bound MBP-16E6, E6AP-BAP activity), C51S 16E6; design: species or system HPV-16; settings: for % Inhibition @ 10 μM E6C51S/E6AP: 10 μM compound; for % Inhibition @ 100 μM E6C51S/E6AP: 100 μM compound
E6 WT/E6AP [2] = target: T1, E6 WT/E6AP; test: biochemical; format: binding; settings: for Emax: 24 h, read-out: FP maximal inhibition (max %) E6 WT/E6AP; for IC50: FP IC50 at 24 h (μM) E6 WT/E6AP

T1 sequence (P03126 8-158): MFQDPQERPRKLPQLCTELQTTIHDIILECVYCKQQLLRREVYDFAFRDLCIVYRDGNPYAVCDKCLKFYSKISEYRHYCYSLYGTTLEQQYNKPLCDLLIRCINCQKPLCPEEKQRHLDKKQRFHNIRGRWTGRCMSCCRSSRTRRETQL
E6C51S/E6AP, sequence (P03126 whole entry C58S, looked up): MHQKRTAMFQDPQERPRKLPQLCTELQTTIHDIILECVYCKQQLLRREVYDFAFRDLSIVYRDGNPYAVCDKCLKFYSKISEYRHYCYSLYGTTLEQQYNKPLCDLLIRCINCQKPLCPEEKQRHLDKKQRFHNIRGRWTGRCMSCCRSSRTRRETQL

Row | Structure (SMILES) | inhibition at 10 µM (E6 WT/E6AP [1]) [%] | inhibition at 100 µM (E6 WT/E6AP [1]) [%] | % Inhibition @ 10 μM E6C51S/E6AP (E6C51S/E6AP) [%] | % Inhibition @ 100 μM E6C51S/E6AP (E6C51S/E6AP) [%] | Emax (E6 WT/E6AP [2]) [%] | IC50 (E6 WT/E6AP [2]) [µM] | FP maximal inhibition (max %) E6 WT/E6AP (E6 WT/E6AP [2]; at 24 h)
1 | Cc1ccccc1C1c2ccsc2CCN1C(C)C(=O)N1CCCN(C(=O)CCl)CC1 (centres unmarked) [EIN-117, 1-(4-(2-chloroacetyl)-1,4-diazepan-1-yl)-2-(4-(o-tolyl)-6,7-dihydrothieno[3,2-c]pyridin-5(4H)-yl)propan-1-one] | 17 ± 1 | 33 ± 7 |  |  |  |  | 
2 | Cc1ccccc1C1c2ccsc2CCN1CC(=O)N1CCN(C(=O)CCl)C(C)C1 (centres unmarked) [EIN-118, 2-chloro-1-(2-methyl-4-(2-(4-(o-tolyl)-6,7-dihydrothieno[3,2-c]pyridin-5(4H)-yl)acetyl)piperazin-1-yl)ethan-1-one] | 49 ± 5 | 98 ± 2 | 12 ± 11 | 79 ± 5 |  |  | 
3 | O=C(CCl)N1CCCN(C(=O)CN2CCc3sccc3C2c2cccc(F)c2)CC1 (centres unmarked) [EIN-119, 2-chloro-1-(4-(2-(4-(3-fluorophenyl)-6,7-dihydrothieno[3,2-c]pyridin-5(4H)-yl)acetyl)-1,4-diazepan-1-yl)ethan-1-one] | 33 ± 6 | 61 ± 1 | 9 ± 7 | 34 ± 7 |  |  | 
4 | CC1CN(C(=O)CN2CCc3sccc3C2c2cccc(F)c2)CCN1C(=O)CCl (centres unmarked) [EIN-120, 2-chloro-1-(4-(2-(4-(3-fluorophenyl)-6,7-dihydrothieno[3,2-c]pyridin-5(4H)-yl)acetyl)-2-methylpiperazin-1-yl)ethan-1-one] | 18 ± 5 | 63 ± 1 | 12 ± 5 | 34 ± 2 |  |  | 
5 | COc1ccc(C2c3ccsc3CCN2CC(=O)N2CCN(C(=O)CCl)C(C)C2)cc1 (centres unmarked) [EIN-121, 2-chloro-1-(4-(2-(4-(4-methoxyphenyl)-6,7-dihydrothieno[3,2-c]pyridin-5(4H)-yl)acetyl)-2-methylpiperazin-1-yl)ethan-1-one] | 24 ± 2 | 52 ± 1 |  |  |  |  | 
6 | Cc1nc(N2CCN(C(=O)CCl)CC2)c2c3c(sc2n1)CCCC3 [EIN-123, 2-chloro-1-(4-(2-methyl-5,6,7,8-tetrahydrobenzo[4,5]thieno[2,3-d]pyrimidin-4-yl)piperazin-1-yl)ethan-1-one] | 58 ± 12 | 114 ± 11 | 44 ± 10 | 90 ± 6 |  |  | 
7 | CCCCc1nc(N2CCN(C(=O)CCl)CC2)c2c3c(sc2n1)CC(C)CC3 (centres unmarked) [EIN-124, 1-(4-(2-butyl-7-methyl-5,6,7,8-tetrahydrobenzo[4,5]thieno[2,3-d]pyrimidin-4-yl)piperazin-1-yl)-2-chloroethan-1-one] | 71 ± 13 | 113 ± 13 | 49 ± 11 | 90 ± 5 |  |  | 
8 | CCCCc1nc(N2CCN(C(=O)CCl)CC2)c2c3c(sc2n1)CCCC3 [EIN-126, 1-(4-(2-butyl-5,6,7,8-tetrahydrobenzo[4,5]thieno[2,3-d]pyrimidin-4-yl)piperazin-1-yl)-2-chloroethan-1-one] | 18 ± 5 | 63 ± 1 | 12 ± 5 | 34 ± 2 |  |  | 
9 | O=C(CCl)N1CCN(c2nc(Cc3ccccc3)nc3sc4c(c23)CCCC4)CC1 [EIN-127, 1-(4-(2-benzyl-5,6,7,8-tetrahydrobenzo[4,5]thieno[2,3-d]pyrimidin-4-yl)piperazin-1-yl)-2-chloroethan-1-one] | 57 ± 14 | 106 ± 11 | 41 ± 5 | 79 ± 4 |  |  | 
10 | Cc1sc2nc(CCc3ccccc3)nc(N3CCN(C(=O)CCl)CC3)c2c1C [EIN-128, 2-chloro-1-(4-(5,6-dimethyl-2-phenethylthieno[2,3-d]pyrimidin-4-yl)piperazin-1-yl)ethan-1-one] | 47 ± 14 | 106 ± 11 | 19 ± 8 | 60 ± 3 |  |  | 
11 | Cc1sc2nc(C3CC3)nc(N3CCN(C(=O)CCl)CC3)c2c1C [EIN-129, 2-chloro-1-(4-(2-cyclopropyl-5,6-dimethylthieno[2,3-d]pyrimidin-4-yl)piperazin-1-yl)ethan-1-one] | 81 ± 16 | 119 ± 13 | 57 ± 12 | 103 ± 5 |  |  | 
12 | CCCc1nc(N2CCN(C(=O)CCl)CC2)c2c3c(sc2n1)CC(C)CC3 (centres unmarked) [EIN-130, 2-chloro-1-(4-(7-methyl-2-propyl-5,6,7,8-tetrahydrobenzo[4,5]thieno[2,3-d]pyrimidin-4-yl)piperazin-1-yl)ethan-1-one] | 46 ± 9 | 100 ± 9 | 52 ± 12 | 85 ± 6 |  |  | 
13 | CCc1nc(N2CCN(C(=O)CCl)CC2)c2c3c(sc2n1)CCCC3 [EIN-131, 2-chloro-1-(4-(2-ethyl-5,6,7,8-tetrahydrobenzo[4,5]thieno[2,3-d]pyrimidin-4-yl)piperazin-1-yl)ethan-1-one] | 24 ± 3 | 65 ± 3 |  |  |  |  | 
14 | C=CC(=O)N1CCN(c2nc(N(C)Cc3ccccc3)nc3sc4c(c23)CCCC4)CC1 [EIN-139, 1-(4-(2-(benzyl(methyl)amino)-5,6,7,8-tetrahydrobenzo[4,5]thieno[2,3-d]pyrimidin-4-yl)piperazin-1-yl)prop-2-en-1-one] | 13 ± 7 | 21 ± 4 | 0 | 6 ± 3 | 8 | 33.1 ± 1.3 | 
15 | C=CC(=O)N1CCN(c2nc(N(C)Cc3ccccc3F)nc3sc4c(c23)CCCC4)CC1 [EIN-140, 1-(4-(2-((2-fluorobenzyl)(methyl)amino)-5,6,7,8-tetrahydrobenzo[4,5]thieno[2,3-d]pyrimidin-4-yl)piperazin-1-yl)prop-2-en-1-one] | 6 ± 6 | 17 ± 4 | 0 | 0 |  |  | 
16 | C=CC(=O)N1CCN(c2nc(N(C)Cc3cccc(F)c3)nc3sc4c(c23)CCCC4)CC1 [EIN-141, 1-(4-(2-((3-fluorobenzyl)(methyl)amino)-5,6,7,8-tetrahydrobenzo[4,5]thieno[2,3-d]pyrimidin-4-yl)piperazin-1-yl)prop-2-en-1-one] | 0 | 18 ± 5 | 0 | 0 |  |  | 
17 | C=CC(=O)N1CCN(c2nc(N(C)Cc3ccc(F)cc3)nc3sc4c(c23)CCCC4)CC1 [EIN-142, 1-(4-(2-((4-fluorobenzyl)(methyl)amino)-5,6,7,8-tetrahydrobenzo[4,5]thieno[2,3-d]pyrimidin-4-yl)piperazin-1-yl)prop-2-en-1-one] | 17 ± 4 | 28 ± 3 | 0 | 0 |  |  | 
18 | C=CC(=O)N1CCN(c2nc(CCc3cccc(OC)c3)nc3sc4c(c23)CCCC4)CC1 [EIN-151, 1-(4-(2-(3-methoxyphenethyl)-5,6,7,8-tetrahydrobenzo[4,5]thieno[2,3-d]pyrimidin-4-yl)piperazin-1-yl)prop-2-en-1-one] |  |  |  |  |  |  | (max 71%)
19 | C=CC(=O)N1CCN(c2nc(CCc3ccc(F)cc3)nc3ccccc23)CC1 [EIN-153, 1-(4-(2-(4-fluorophenethyl)quinazolin-4-yl)piperazin-1-yl)prop-2-en-1-one] |  |  |  |  | 100 | 27.7 ± 1.3 | 
20 | C=CC(=O)N1CCN(c2nc(CCc3cccc(F)c3)nc3ccccc23)CC1 [EIN-158, 1-(4-(2-(3-fluorophenethyl)quinazolin-4-yl)piperazin-1-yl)prop-2-en-1-one] |  |  |  |  | 100 | 52.8 ± 2.8 | 
21 | C=CC(=O)N1CCN(c2nc(-c3cccc(OC)c3)nc3ccccc23)CC1 [EIN-159, 1-(4-(2-(3-methoxyphenyl)quinazolin-4-yl)piperazin-1-yl)prop-2-en-1-one] |  |  |  |  | 91 | 14.5 ± 1.3 | 
22 | C=CC(=O)N1CCN(c2nc(-c3ccccc3OC)nc3ccccc23)CC1 [EIN-160, 1-(4-(2-(2-methoxyphenyl)quinazolin-4-yl)piperazin-1-yl)prop-2-en-1-one] |  |  |  |  | 100 | 128 ± 2.3 | 
23 | C=CC(=O)N1CCN(c2nc(-c3ccc(OC)cc3)nc3ccccc23)CC1 [EIN-161, 1-(4-(2-(4-methoxyphenyl)quinazolin-4-yl)piperazin-1-yl)prop-2-en-1-one] |  |  |  |  | 91 | 13.3 ± 1.9 | 
24 | C=CC(=O)N1CCN(c2nc(-c3ccc(OC(F)(F)F)cc3)nc3ccccc23)CC1 [EIN-162, 1-(4-(2-(4-(trifluoroniethoxy)phenyl)quinazolin-4-yl)piperazin-1-yl)prop-2-en-1-one] |  |  |  |  | 100 | 105 ± 13.7 | 
25 | C=CC(=O)N1CCN(c2nc(-c3ccc(OC4CC4)cc3)nc3ccccc23)CC1 [EIN-163, 1-(4-(2-(4-cyclopropoxyphenyl)quinazolin-4-yl)piperazin-1-yl)prop-2-en-1-one] |  |  |  |  | 100 | 41.6 ± 2.8 | 
26 | C=CC(=O)N1CCN(c2nc(-c3ccc(OC)cc3F)nc3ccccc23)CC1 [EIN-164, 1-(4-(2-(2-fluoro-4-methoxyphenyl)quinazolin-4-yl)piperazin-1-yl)prop-2-en-1-one] |  |  |  |  | 100 | 22.9 ± 1.3 | 
27 | C=CC(=O)N1CCN(c2nc(-c3ccc(OC)cc3)nc3cccnc23)CC1 [EIN-165, 1-(4-(2-(4-methoxyphenyl)pyrido[3,2-d]pyrimidin-4-yl)piperazin-1-yl)prop-2-en-1-one] |  |  |  |  | 100 | 38.2 ± 2.1 | 
